Structures are written as SMILES.

This assay deals with T1, KRas G12C (Homo sapiens, UniProt P01116, G12C).
T1 construct: NCI-H358 cells (ATCC CRL-5807) express KRas G12C
T1 sequence (P01116 1-188 isoform P01116-2 G12C): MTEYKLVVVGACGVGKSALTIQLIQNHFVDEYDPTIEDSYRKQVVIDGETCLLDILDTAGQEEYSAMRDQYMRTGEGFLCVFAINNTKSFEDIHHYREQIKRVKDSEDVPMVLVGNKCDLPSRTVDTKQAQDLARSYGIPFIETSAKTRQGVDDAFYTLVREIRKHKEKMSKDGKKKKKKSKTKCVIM
The experiment in a line: Inhibition of KRas G12C-dependent cell growth: Phospho-ERK in NCI-H358 cells. The class given is cell-based. Particulars: NCI-H358 cells expressing KRas G12C; Phospho-ERK (Thr202/Tyr204) normalized to GAPDH; 3 hours compound; 4 parameter fit. As to the method:
The cellular inhibition of KRAs G12C by exemplary compounds of the present invention was determined by measuring the amount of a downstream marker of KRas activity, phosphorylated ERK (“Phospho-ERK”).
NCI-H358 cells (ATCC CRL-5807) express KRas G12C and were grown in RPMI medium supplemented with 10% fetal bovine serum, penicillin/streptomycin and 10 mM HEPES. Cells were plated in poly-D-Lysine coated 96-well plates at a concentration of 50,000 cells/well and allowed to attach for 8-12 hours. Diluted compounds were then added at a final concentration of 0.5% DMSO. After 3 hours, the medium was removed, 150 μL of 4% formaldehyde was added and the plates were incubated for 20 minutes. The plates were washed with PBS, and permeabilized using 150 μL of ice cold 100% methanol for 10 minutes. Non-specific antibody binding to the plates was blocked using 100 μL Licor Blocking Buffer (Li-Cor Biotechnology, Lincoln Nebr.) for 1 hour at room temperature. Positive control samples and samples lacking cells were parallel processed with test samples as standards.
The amount Phospho-ERK was determined using an antibody specific for the phosphorylated form of ERK and compared to the amount of GAPDH. Primary antibodies used for detection were added as follows: Phospho-ERK (Cell Signaling cs9101) diluted 1:500 and GAPDH (Millipore MAB374) diluted 1:5000 in Licor block+0.05% Tween 20. The plates were incubated for 2 hours at room temperature. The plates were washed with PBS+0.05% Tween 20.
Secondary antibodies used to visualize primary antibodies were added as follows: Anti-rabbit-680 diluted 1:1000 and Anti-mouse-800 diluted 1:1000 in Licor Block+0.05% Tween 20 and incubated for 1 hour at room temperature. The plates were washed with PBS+0.05% Tween 20. A 100 μL aliquot of PBS was added to each well and the plates were read on a LICOR AERIUS plate reader.
The pERK(Thr202/Tyr204) signal was normalized with the GAPDH signal and percent of DMSO control values were calculated. IC50 values were generated using a 4 parameter fit of the dose response curve.
In turn, `CO[C@@H]1C[C@@H](COc2nc(N3CCN(C(=O)/C=C/CF)[C@@H](CC#N)C3)c3cnc(-c4cncc5cccc(C)c45)c(F)c3n2)N(C)C1` [Example 36, 2-[(2S)-1-[(E)-4-fluorobut-2-enoyl]-4-[8-fluoro-2-[[(2S,4R)-4-methoxy-1-methyl-pyrrolidin-2-yl]methoxy]-7-(5-methyl-4-isoquinolyl)pyrido[4,3-d]pyrimidin-4-yl]piperazin-2-yl]acetonitrile] returned a half-inhibitory concentration (IC50) of 44 nM.
With `C=C(F)C(=O)N1CCN(c2nc(OCCCN3C[C@@H]4C[C@H]3CO4)nc3c(F)c(-c4cncc5cccc(Cl)c45)ncc23)C[C@@H]1CC#N` [Example 37, 2-[(2S)-4-[7-(5-chloro-4-isoquinolyl)-8-fluoro-2-[3-[(1S,4S)-2-oxa-5-azabicyclo[2.2.1]heptan-5-yl]propoxy]pyrido[4,3-d]pyrimidin-4-yl]-1-(2-fluoroprop-2-enoyl)piperazin-2-yl]acetonitrile] the figure was 168 nM; with `C=C(F)C(=O)N1CCN(c2nc(OCCCN3C[C@@H]4C[C@H]3CO4)nc3c(F)c(-c4cncc5cccc(C)c45)ncc23)C[C@@H]1CC#N` [Example 38, 2-[(2S)-4-[8-fluoro-7-(5-methyl-4-isoquinolyl)-2-[3-[(1S,4S)-2-oxa-5-azabicyclo[2.2.1]heptan-5-yl]propoxy]pyrido[4,3-d]pyrimidin-4-yl]-1-(2-fluoroprop-2-enoyl)piperazin-2-yl]acetonitrile], 338 nM; with `Cc1cccc2cncc(-c3ncc4c(N5CCN(C(=O)/C=C/CF)[C@@H](CC#N)C5)nc(OCCCN5C[C@@H]6C[C@H]5CO6)nc4c3F)c12` [Example 39, 2-[(2S)-1-[(E)-4-fluorobut-2-enoyl]-4-[8-fluoro-7-(5-methyl-4-isoquinolyl)-2-[3-[(1S,4S)-2-oxa-5-azabicyclo[2.2.1]heptan-5-yl]propoxy]pyrido[4,3-d]pyrimidin-4-yl]piperazin-2-yl]acetonitrile], 544 nM.
With `C=CC(=O)N1CCN(c2ncnc3cc(-c4cccc5cccc(C)c45)ncc23)C[C@@H]1CC#N` [Example 40, (S)-2-(1-acryloyl-4-(7-(8-methylnaphthalen-1-yl)pyrido[4,3-d]pyrimidin-4-yl)piperazin-2-yl)acetonitrile] the figure was 496 nM; with `C=CC(=O)N1CCN(c2ncnc3c(F)c(-c4cccc5cccc(C)c45)ncc23)C[C@@H]1CC#N` [Example 41, 2-[(2S)-4-[8-fluoro-7-(8-methyl-1-naphthyl)pyrido[4,3-d]pyrimidin-4-yl]-1-prop-2-enoyl-piperazin-2-yl]acetonitrile], 216 nM.
For `C=C(F)C(=O)N1CCN(c2nc(OC[C@@H]3C[C@@H](F)CN3C)nc3c(F)c(-c4cccc5cccc(Cl)c45)ncc23)C[C@@H]1CC#N` [Example 42, 2-[(2S)-4-[7-(8-chloro-1-naphthyl)-8-fluoro-2-[[(2S,4R)-4-fluoro-1-methyl-pyrrolidin-2-yl]methoxy]pyrido[4,3-d]pyrimidin-4-yl]-1-(2-fluoroprop-2-enoyl)piperazin-2-yl]acetonitrile], the IC50 was found to be 18 nM. Against the preceding compound, the IC50 is about 12-fold lower.
With `CN1C[C@H](F)C[C@H]1COc1nc(N2CCN(C(=O)/C=C/CF)[C@@H](CC#N)C2)c2cnc(-c3cccc4cccc(Cl)c34)c(F)c2n1` [Example 43, 2-[(2S)-4-[7-(8-chloro-1-naphthyl)-8-fluoro-2-[[(2S,4R)-4-fluoro-1-methyl-pyrrolidin-2-yl]methoxy]pyrido[4,3-d]pyrimidin-4-yl]-1-[(E)-4-fluorobut-2-enoyl]piperazin-2-yl]acetonitrile], the concentration for half-maximal inhibition (IC50) turned out to be 4 nM.
As for `COC/C=C/C(=O)N1CCN(c2nc(OC[C@@H]3C[C@@H](F)CN3C)nc3c(F)c(-c4cccc5cccc(Cl)c45)ncc23)C[C@@H]1CC#N` [Example 44, 2-[(2S)-4-[7-(8-chloro-1-naphthyl)-8-fluoro-2-[[(2S,4R)-4-fluoro-1-methyl-pyrrolidin-2-yl]methoxy]pyrido[4,3-d]pyrimidin-4-yl]-1-[(E)-4-methoxybut-2-enoyl]piperazin-2-yl]acetonitrile], the concentration for half-maximal inhibition (IC50) turned out to be 15 nM. This IC50 lies about 3.8-fold higher than the previous one.
The result for `C=C(F)C(=O)N1CCN(c2nc(OC[C@@H]3CC(F)(F)CN3C)nc3c(F)c(-c4cncc5cccc(C)c45)ncc23)C[C@@H]1CC#N` [Example 45, 2-((S)-4-(2-(((S)-4,4-difluoro-1-methylpyrrolidin-2-yl)methoxy)-8-fluoro-7-(5-methylisoquinolin-4-yl)pyrido[4,3-d]pyrimidin-4-yl)-1-(2-fluoroacryloyl)piperazin-2-yl)acetonitrile] reads 205 nM; that for `C=C(F)C(=O)N1CCN(c2nc(OC[C@@H]3CC(F)(F)CN3C)nc3c(F)c(-c4cncc5cccc(Cl)c45)ncc23)C[C@@H]1CC#N` [Example 46, 2-((S)-4-(7-(5-chloroisoquinolin-4-yl)-2-(((S)-4,4-difluoro-1-methylpyrrolidin-2-yl)methoxy)-8-fluoropyrido[4,3-d]pyrimidin-4-yl)-1-(2-fluoroacryloyl)piperazin-2-yl)acetonitrile], 94 nM.
The result for `CN1CC(F)(F)C[C@H]1COc1nc(N2CCN(C(=O)/C=C/CF)[C@@H](CC#N)C2)c2cnc(-c3cncc4cccc(Cl)c34)c(F)c2n1` [Example 47, 2-((S)-4-(7-(5-chloroisoquinolin-4-yl)-2-(((S)-4,4-difluoro-1-methylpyrrolidin-2-yl)methoxy)-8-fluoropyrido[4,3-d]pyrimidin-4-yl)-1-((E)-4-fluorobut-2-enoyl)piperazin-2-yl)acetonitrile] reads 30 nM; that for `N#CC[C@H]1CN(c2nc(OCCCN3C[C@@H]4C[C@H]3CO4)nc3c(F)c(-c4cncc5cccc(Cl)c45)ncc23)CCN1C(=O)/C=C/CF` [Example 48, 2-[(2S)-4-[7-(5-chloro-4-isoquinolyl)-8-fluoro-2-[3-[(1S,4S)-2-oxa-5-azabicyclo[2.2.1]heptan-5-yl]propoxy]pyrido[4,3-d]pyrimidin-4-yl]-1-[(E)-4-fluorobut-2-enoyl]piperazin-2-yl]acetonitrile], 270 nM.
The result for `COC/C=C/C(=O)N1CCN(c2nc(OC[C@@H]3C[C@@H](F)CN3C)nc3c(F)c(-c4cccc5cccc(C)c45)ncc23)C[C@@H]1CC#N` [Example 49, 2-[(2S)-4-[8-fluoro-2-[[(2S,4R)-4-fluoro-1-methyl-pyrrolidin-2-yl]methoxy]-7-(8-methyl-1-naphthyl)pyrido[4,3-d]pyrimidin-4-yl]-1-[(E)-4-methoxybut-2-enoyl]piperazin-2-yl]acetonitrile] reads 62 nM; that for `C=C(F)C(=O)N1CCN(c2nc(OC[C@@H]3C[C@@H](F)CN3C)nc3c(F)c(-c4cncc5cccc(C)c45)ncc23)C[C@@H]1CC#N` [Example 50, 2-[(2S)-4-[8-fluoro-2-[[(2S,4R)-4-fluoro-1-methyl-pyrrolidin-2-yl]methoxy]-7-(5-methyl-4-isoquinolyl)pyrido[4,3-d]pyrimidin-4-yl]-1-(2-fluoroprop-2-enoyl)piperazin-2-yl]acetonitrile], 53 nM; that for `Cc1cccc2cncc(-c3ncc4c(N5CCN(C(=O)/C=C/CF)[C@@H](CC#N)C5)nc(OC[C@@H]5C[C@@H](F)CN5C)nc4c3F)c12` [Example 51, 2-[(2S)-1-[(E)-4-fluorobut-2-enoyl]-4-[8-fluoro-2-[[(2S,4R)-4-fluoro-1-methyl-pyrrolidin-2-yl]methoxy]-7-(5-methyl-4-isoquinolyl)pyrido[4,3-d]pyrimidin-4-yl]piperazin-2-yl]acetonitrile], 19 nM.
On to `C=C(F)C(=O)N1CCN(c2nc(OC[C@@H]3C[C@@H](F)CN3C)nc3c(F)c(-c4cncc5cccc(Cl)c45)ncc23)C[C@@H]1CC#N` [Example 52, 2-[(2S)-4-[7-(5-chloro-4-isoquinolyl)-8-fluoro-2-[[(2S,4R)-4-fluoro-1-methyl-pyrrolidin-2-yl]methoxy]pyrido[4,3-d]pyrimidin-4-yl]-1-(2-fluoroprop-2-enoyl)piperazin-2-yl]acetonitrile], for which 23 nM corresponded to half-maximal inhibition (IC50).
The result for `CN1C[C@H](F)C[C@H]1COc1nc(N2CCN(C(=O)/C=C/CF)[C@@H](CC#N)C2)c2cnc(-c3cncc4cccc(Cl)c34)c(F)c2n1` [Example 53, 2-[(2S)-4-[7-(5-chloro-4-isoquinolyl)-8-fluoro-2-[[(2S,4R)-4-fluoro-1-methyl-pyrrolidin-2-yl]methoxy]pyrido[4,3-d]pyrimidin-4-yl]-1-[(E)-4-fluorobut-2-enoyl]piperazin-2-yl]acetonitrile] reads 17 nM.
In turn, `C=C(F)C(=O)N1CCN(c2nc(OC[C@@H]3CCCN3C)nc3c(F)c(-c4cncc5cccc(Cl)c45)ncc23)C[C@@H]1CC#N` [Example 54, 2-((S)-4-(7-(5-chloroisoquinolin-4-yl)-8-fluoro-2-(((S)-1-methylpyrrolidin-2-yl)methoxy)pyrido[4,3-d]pyrimidin-4-yl)-1-(2-fluoroacryloyl)piperazin-2-yl)acetonitrile] registered an IC50 of 14 nM.

For orientation: IC50 means the concentration at which inhibition is half-maximal. A lower IC50 goes with higher potency.

The record behind these values is patent US11548888B2, “KRas G12C inhibitors” (Mirati Therapeutics, Inc., priority 2019, dated 2023).
